Laboratory results as given in PubChem BioAssay (NCI).
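Exposure lasted 48 hours, with cells grown in 96-well plates and compounds tested at five concentrations. Here, GI50 denotes the concentration required for 50% inhibition of growth. Definition used: TGI = concentration required for complete inhibition of growth.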

What was measured:
Assay in all cases: NCI-60 cell line screen, 48 h
[1] = system: NCI-H522 lung
[2] = system: MDA-MB-231 breast
[3] = system: K-562 leukemia
[4] = system: HOP-62 NSCLC
[5] = system: UACC-62 melanoma
[6] = system: A549 NSCLC
[7] = system: RXF 393 renal
[8] = system: OVCAR-4 ovarian
[9] = system: CCRF-CEM leukemia
[10] = system: UO-31 renal
[11] = system: MDA-MB-435
[12] = system: NCI-H226 lung
[13] = system: SF-295 CNS
[14] = system: SNB-75 CNS
[15] = system: SF-268 CNS
[16] = system: HOP-92 NSCLC
[17] = system: HT29 colon
[18] = system: NCI-H23 lung
[19] = system: OVCAR-8 ovarian
[20] = system: PC-3 prostate
[21] = system: U251 CNS
[22] = system: SK-OV-3 ovarian
[23] = system: KM12 colon
[24] = system: MOLT-4 leukemia
[25] = system: BT-549 breast
[26] = system: HCT-116 colon
[27] = system: ACHN renal
[28] = system: SN12C renal
[29] = system: HL-60(TB) leukemia
[30] = system: 786-0 renal
[31] = system: SF-539 CNS
[32] = system: NCI-H460 lung
[33] = system: M14 melanoma
[34] = system: RPMI-8226 leukemia
[35] = system: HCC-2998 colon
[36] = system: CAKI-1 renal
[37] = system: OVCAR-5 ovarian
[38] = system: SK-MEL-2 melanoma
[39] = system: MCF7 breast
[40] = system: LOX IMVI melanoma
[41] = system: EKVX NSCLC
[42] = system: SR leukemia
[43] = system: COLO 205 colon
[44] = system: OVCAR-3 ovarian
[45] = system: T-47D breast
[46] = system: A498 renal
[47] = system: HS 578T breast
[48] = system: SK-MEL-5 melanoma
[49] = system: MDA-MB-468 breast
[50] = system: SW-620 colon
[51] = system: SNB-19 CNS
[52] = system: HCT-15 colon
[53] = system: SK-MEL-28 melanoma
[54] = system: DU-145 prostate
[55] = system: TK-10 renal
[56] = system: UACC-257 melanoma
[57] = system: IGROV1 ovarian
[58] = system: MALME-3M melanoma
[59] = system: NCI/ADR-RES ovarian

CN1CCN(c2ccc(C(=O)/C=C/c3cc(Br)ccc3F)cc2)CC1
GI50 [1]: 13.5 µM
TGI [1]: 27.1 µM
GI50 [2]: 13.2 µM
TGI [2]: 30 µM
GI50 [3]: 2.28 µM
TGI [3]: 11.8 µM
GI50 [4]: 16.2 µM
TGI [4]: 31.5 µM
GI50 [5]: 15.1 µM
TGI [5]: 29.9 µM
GI50 [6]: 4.38 µM
TGI [6]: 16.5 µM
GI50 [7]: 1.27 µM
TGI [7]: 13.7 µM
GI50 [8]: 11.3 µM
TGI [8]: 23.9 µM
GI50 [9]: 3.44 µM
TGI [9]: 15.6 µM
GI50 [10]: 8.55 µM
TGI [10]: 21.5 µM
GI50 [11]: 3.78 µM
TGI [11]: 13.5 µM
GI50 [12]: 12.7 µM
TGI [12]: 27.3 µM
GI50 [13]: 15.2 µM
TGI [13]: 28.7 µM
GI50 [14]: 3.25 µM
TGI [14]: 16.6 µM
GI50 [15]: 15.1 µM
TGI [15]: 31.6 µM
GI50 [16]: 6.71 µM
TGI [16]: 21.9 µM
GI50 [17]: 2.87 µM
TGI [17]: 10.9 µM
GI50 [18]: 13.5 µM
TGI [18]: 27.3 µM
GI50 [19]: 13.2 µM
TGI [19]: 26 µM
GI50 [20]: 6.24 µM
TGI [20]: 21.3 µM
GI50 [21]: 5.91 µM
TGI [21]: 18.9 µM
GI50 [22]: 14.7 µM
TGI [22]: 28.6 µM
GI50 [23]: 2.69 µM
TGI [23]: 9.23 µM
GI50 [24]: 3.69 µM
TGI [24]: 16.8 µM
GI50 [25]: 3.58 µM
TGI [25]: 12.2 µM
GI50 [26]: 1.79 µM
TGI [26]: 3.93 µM
GI50 [27]: 13.4 µM
TGI [27]: 29.5 µM
GI50 [28]: 11.2 µM
TGI [28]: 27.2 µM
GI50 [29]: 2.77 µM
TGI [29]: 14.5 µM
GI50 [30]: 10 µM
TGI [30]: 22.4 µM
GI50 [31]: 7.05 µM
TGI [31]: 21.7 µM
GI50 [32]: 15.6 µM
TGI [32]: 31.1 µM
GI50 [33]: 6.38 µM
TGI [33]: 19.7 µM
GI50 [34]: 1.84 µM
TGI [34]: 6.07 µM
GI50 [35]: 2.76 µM
TGI [35]: 7.91 µM
GI50 [36]: 12.1 µM
TGI [36]: 24.6 µM
GI50 [37]: 18.6 µM
TGI [37]: 35.9 µM
GI50 [38]: 14.5 µM
TGI [38]: 27.6 µM
GI50 [39]: 2.67 µM
TGI [39]: 11.5 µM
GI50 [40]: 3.2 µM
TGI [40]: 12.5 µM
GI50 [41]: 13.3 µM
TGI [41]: 26.4 µM
GI50 [42]: 2.58 µM
TGI [42]: 10.7 µM
GI50 [43]: 11.8 µM
TGI [43]: 30.1 µM
GI50 [44]: 5.81 µM
TGI [44]: 18.2 µM
GI50 [45]: 15 µM
TGI [45]: 47.3 µM
GI50 [46]: 17 µM
TGI [46]: 31.7 µM
GI50 [47]: 13.3 µM
TGI [47]: 38.8 µM
GI50 [48]: 12.9 µM
TGI [48]: 25.7 µM
GI50 [49]: 2.51 µM
TGI [49]: 9.77 µM
GI50 [50]: 3.52 µM
TGI [50]: 14.2 µM
GI50 [51]: 15.1 µM
TGI [51]: 29.5 µM
GI50 [52]: 3.43 µM
TGI [52]: 14.7 µM
GI50 [53]: 19.7 µM
TGI [53]: 36.2 µM
GI50 [54]: 11.1 µM
TGI [54]: 23 µM
GI50 [55]: 15 µM
TGI [55]: 28.3 µM
GI50 [56]: 15.5 µM
TGI [56]: 29.5 µM
GI50 [57]: 12.8 µM
TGI [57]: 26.6 µM
GI50 [58]: 15.3 µM
TGI [58]: 29.4 µM

CS(=O)(=O)Nc1cc(-c2ccc3ncnc(N4CCc5cc(F)c(Cl)cc54)c3c2)cnc1Cl
GI50 [1]: 1.62 µM
TGI [1]: 14.3 µM
GI50 [2]: 1.51 µM
TGI [2]: 4.29 µM
GI50 [3]: 5.37 µM
TGI [3]: 68.8 µM
GI50 [4]: 0.704 µM
TGI [4]: 7.36 µM
GI50 [5]: 0.382 µM
TGI [5]: 2.57 µM
GI50 [6]: 1.64 µM
TGI [6]: 8.67 µM
GI50 [7]: 0.577 µM
TGI [7]: 3.17 µM
GI50 [8]: 2.35 µM
TGI [8]: 21.1 µM
GI50 [9]: 1.84 µM
TGI [9]: > 100 µM
GI50 [10]: 0.252 µM
TGI [10]: 4.05 µM
GI50 [11]: 1.72 µM
TGI [11]: 13 µM
GI50 [12]: 0.672 µM
TGI [12]: 7.43 µM
GI50 [13]: 1.06 µM
TGI [13]: 5.28 µM
GI50 [14]: 0.254 µM
TGI [14]: 3 µM
GI50 [15]: 1.65 µM
TGI [15]: 47.9 µM
GI50 [16]: 0.595 µM
TGI [16]: 6.68 µM
GI50 [17]: 1.48 µM
TGI [17]: 16.8 µM
GI50 [18]: 1.63 µM
TGI [18]: 9.94 µM
GI50 [19]: 1.87 µM
TGI [19]: 20.5 µM
GI50 [20]: 1.03 µM
TGI [20]: 21 µM
GI50 [21]: 2.36 µM
TGI [21]: 17.5 µM
GI50 [22]: 0.444 µM
TGI [22]: 2.84 µM
GI50 [23]: 3.02 µM
TGI [23]: 18.5 µM
GI50 [24]: 1.06 µM
TGI [24]: 5 µM
GI50 [25]: 1.48 µM
TGI [25]: 5.11 µM
GI50 [26]: 3.49 µM
TGI [26]: 17.4 µM
GI50 [27]: 1.66 µM
TGI [27]: > 100 µM
GI50 [28]: 1.68 µM
TGI [28]: 36.5 µM
GI50 [29]: 0.484 µM
TGI [29]: 15.1 µM
GI50 [30]: 1.64 µM
TGI [30]: 27 µM
GI50 [31]: 1.56 µM
TGI [31]: 6.73 µM
GI50 [32]: 0.922 µM
TGI [32]: 13.1 µM
GI50 [33]: 1.48 µM
TGI [33]: 14.7 µM
GI50 [34]: 1.84 µM
TGI [34]: > 100 µM
GI50 [35]: 1.24 µM
TGI [35]: 8.36 µM
GI50 [36]: 0.748 µM
TGI [36]: 7.32 µM
GI50 [37]: 1.87 µM
TGI [37]: 23.5 µM
GI50 [38]: 1.73 µM
TGI [38]: 5.8 µM
GI50 [39]: 0.255 µM
TGI [39]: 11.6 µM
GI50 [40]: 1.05 µM
TGI [40]: 4.09 µM
GI50 [41]: 0.559 µM
TGI [41]: 3.63 µM
GI50 [42]: 1.52 µM
TGI [42]: 12.9 µM
GI50 [43]: 1.61 µM
TGI [43]: 9.61 µM
GI50 [44]: 0.83 µM
TGI [44]: 4.56 µM
GI50 [45]: 0.141 µM
TGI [45]: 0.963 µM
GI50 [46]: 0.64 µM
TGI [46]: 3.54 µM
GI50 [47]: 0.166 µM
TGI [47]: 1.13 µM
GI50 [48]: 0.85 µM
TGI [48]: 2.61 µM
GI50 [49]: 0.211 µM
TGI [49]: 1.38 µM
GI50 [50]: 2.51 µM
TGI [50]: 17.4 µM
GI50 [51]: 1.64 µM
TGI [51]: 13.4 µM
GI50 [52]: 1 µM
TGI [52]: 11.4 µM
GI50 [53]: 1.32 µM
TGI [53]: 13.4 µM
GI50 [54]: 1.67 µM
TGI [54]: 19.5 µM
GI50 [55]: 0.644 µM
TGI [55]: 9.62 µM
GI50 [56]: 1.39 µM
TGI [56]: 11 µM
GI50 [57]: 0.194 µM
TGI [57]: 0.979 µM
GI50 [59]: 1.95 µM
TGI [59]: 15.3 µM
GI50 [58]: 0.174 µM
TGI [58]: 1.55 µM
